Measurements published in EP0302824A2 (priority 1987, dated 1989).

What was measured:
[1] = Solubilization of furathiocarb in aqueous surfactant solutions, UV spectroscopy; format: physicochemical; details: for enhancement in the solubility (increase): 1000 ppm
Protocol: This example compares the solubilization of the biocide furathiocarb in a variety of aqueous surfactant solutions (1000 ppm). Experimental Note: 5 µl of furathiocarb (∼ 0.0060-0.0070 g) is pipetted into 10 ml aqueous solutions and stirred overnight. Analysis is performed by UV spectroscopy.

[2] = test system: Heliothis virescens larvae; assay: Systemic activity of seed applied furathiocarb, larvae caged on maize leaves; format: in vivo
Protocol: This example includes the results of three test series using different maize cultivars F7 x F2, Centaurus and Arjuna. The basic experimental procedure is that used in example 20 therefore only differences are mentioned here.
Seeds of the hybrid F7 x F2 are treated with 10 g/kg furathiocarb in either PVAc/PVAl or association polymer systems. Treatment techniques are described earlier. Seeds are sown in 4 soil types: 100% quartz sand, 98% quartz sand plus 2% peat, 95% quartz sand plus 5% peat and 90% quartz sand plus 10% peat. Soil moisture is maintained at 10% for the 100% and 98% sand mixtures and at 20% for the other two soil types. All percentages are based on dry weight.
Insecticidal activity is tested by caging 5 first instar Heliothis virescens larvae on each leaf of the maize plants. The insects are caged on the leaves at 9 and 14 days after planting and are allowed to feed for 5 and 3 days respectively. The test is evaluated by counting surviving larvae and by visually assessing feeding damage. To achieve this consistently, the leaf is compared to standard diagrams and the percentage eaten is estimated as 0, 1, 2, 5, 10, 20 or 50% or the total area.
Seeds of the hybrid Centaurus are treated with both 4 and 10 g/kg furathiocarb in either PVAc/PVAl or association polymer systems. Seeds are sown in two soil types either earth from Stein, Canton Aargau, Switzerland (exact description given earlier) or in a 98% sand 2% peat mixture. Moisture content is 20% of dry weight for the former and 10% for the latter. H. virescens is again used to test insecticidal activity. The larvae are caged on the leaves either 8 or 14 days after planting and are allowed to feed for 4 days.
Seeds of the cultivar Arjuna are treated with 2.5 and 10 g/kg furathiocarb in either PVAc/PVAl or association polymer systems. Seeds are sown in the two soil types used in the tests of the hybrid Centaurus. H. virescens is again the test insect and the larvae are caged on individual leaves 10 and 14 days after planting; they are allowed to feed for 4 days. Only 10 g rates are tested at the second date.

corn rootworms = assay: Field control of corn rootworms by insecticide/polymer combinations applied to the seed; format: in vivo, Diabrotica spp.; details: maize G 4733, 0-6 scale, 63 days after planting
[3] = cultivar Arjuna, 98% Sand, time 1 week, Association Polymer, dosage 2.5 g
[4] = cultivar Arjuna, 98% Sand, time 1 week, Association Polymer, dosage 10 g
[5] = cultivar Arjuna, 98% Sand, time 1 week, PVAc/PVAl, dosage 2.5 g
[6] = cultivar Arjuna, 98% Sand, time 1 week, PVAc/PVAl, dosage 10 g
[7] = cultivar Arjuna, 98% Sand, time 2 weeks, Association Polymer, dosage 10 g
[8] = cultivar Arjuna, 98% Sand, time 2 weeks, PVAc/PVAl, dosage 10 g
[9] = cultivar Arjuna, Stein Earth, time 1 week, Association Polymer, dosage 2.5 g
[10] = cultivar Arjuna, Stein Earth, time 1 week, Association Polymer, dosage 10 g
[11] = cultivar Arjuna, Stein Earth, time 1 week, PVAc/PVAl, dosage 2.5 g
[12] = cultivar Arjuna, Stein Earth, time 1 week, PVAc/PVAl, dosage 10 g
[13] = cultivar Arjuna, Stein Earth, time 2 weeks, Association Polymer, dosage 10 g
[14] = cultivar Arjuna, Stein Earth, time 2 weeks, PVAc/PVAl, dosage 10 g
[15] = hybrid Centaurus, 98% Sand, time 1 week, Association Polymer, dosage 4 g
[16] = hybrid Centaurus, 98% Sand, time 1 week, Association Polymer, dosage 10 g
[17] = hybrid Centaurus, 98% Sand, time 1 week, PVAc/PVAl, dosage 4 g
[18] = hybrid Centaurus, 98% Sand, time 1 week, PVAc/PVAl, dosage 10 g
[19] = hybrid Centaurus, 98% Sand, time 2 weeks, Association Polymer, dosage 4 g
[20] = hybrid Centaurus, 98% Sand, time 2 weeks, Association Polymer, dosage 10 g
[21] = hybrid Centaurus, 98% Sand, time 2 weeks, PVAc/PVAl, dosage 4 g
[22] = hybrid Centaurus, 98% Sand, time 2 weeks, PVAc/PVAl, dosage 10 g
[23] = hybrid Centaurus, Stein Earth, time 1 week, Association Polymer, dosage 4 g
[24] = hybrid Centaurus, Stein Earth, time 1 week, Association Polymer, dosage 10 g
[25] = hybrid Centaurus, Stein Earth, time 1 week, PVAc/PVAl, dosage 4 g
[26] = hybrid Centaurus, Stein Earth, time 1 week, PVAc/PVAl, dosage 10 g
[27] = hybrid Centaurus, Stein Earth, time 2 weeks, Association Polymer, dosage 4 g
[28] = hybrid Centaurus, Stein Earth, time 2 weeks, Association Polymer, dosage 10 g
[29] = hybrid Centaurus, Stein Earth, time 2 weeks, PVAc/PVAl, dosage 4 g
[30] = hybrid Centaurus, Stein Earth, time 2 weeks, PVAc/PVAl, dosage 10 g
[31] = hybrid F7 x F2, 10 g/kg, 90% Sand, time 1 week, Association Polymer
[32] = hybrid F7 x F2, 10 g/kg, 90% Sand, time 1 week, PVAc/PVAl
[33] = hybrid F7 x F2, 10 g/kg, 90% Sand, time 2 weeks, Association Polymer
[34] = hybrid F7 x F2, 10 g/kg, 90% Sand, time 2 weeks, PVAc/PVAl
[35] = hybrid F7 x F2, 10 g/kg, 95% Sand, time 1 week, Association Polymer
[36] = hybrid F7 x F2, 10 g/kg, 95% Sand, time 1 week, PVAc/PVAl
[37] = hybrid F7 x F2, 10 g/kg, 95% Sand, time 2 weeks, Association Polymer
[38] = hybrid F7 x F2, 10 g/kg, 95% Sand, time 2 weeks, PVAc/PVAl
[39] = hybrid F7 x F2, 10 g/kg, 98% Sand, time 1 week, Association Polymer
[40] = hybrid F7 x F2, 10 g/kg, 98% Sand, time 1 week, PVAc/PVAl
[41] = hybrid F7 x F2, 10 g/kg, 98% Sand, time 2 weeks, Association Polymer
[42] = hybrid F7 x F2, 10 g/kg, 98% Sand, time 2 weeks, PVAc/PVAl
[43] = hybrid F7 x F2, 10 g/kg, 100% Sand, time 1 week, Association Polymer
[44] = hybrid F7 x F2, 10 g/kg, 100% Sand, time 1 week, PVAc/PVAl
[45] = hybrid F7 x F2, 10 g/kg, 100% Sand, time 2 weeks, Association Polymer
[46] = hybrid F7 x F2, 10 g/kg, 100% Sand, time 2 weeks, PVAc/PVAl

## CCCCOC(=O)N(C)SN(C)C(=O)Oc1cccc2c1OC(C)(C)C2 [furathiocarb]
[1]; 1000 ppm Alipal CO-433
  Solubility of Furathiocarb, ppm: 25 ppm
[1]; 1000 ppm Alipal EP110
  Solubility of Furathiocarb, ppm: 16 ppm
[1]; 1000 ppm Ethomeen T/15
  Solubility of Furathiocarb, ppm: 89 ppm
[1]; 1000 ppm Pluronic F68
  Solubility of Furathiocarb, ppm: 15 ppm
[1]; 1000 ppm Triton N101
  Solubility of Furathiocarb, ppm: 220 ppm
[1]; Ethomeen T/15 solution
  enhancement in the solubility (increase): 5 fold
[1]; H₂O
  Solubility of Furathiocarb, ppm: 15 ppm
[1]; Triton N101 solution
  enhancement in the solubility (increase): 14 fold
[2]; [3]
  Percent survival of H. virescens larvae: 4%
  Scores of damage caused by H. virescens larvae: 2.1
[2]; [4]
  Percent survival of H. virescens larvae: 6%
  Scores of damage caused by H. virescens larvae: 2.5
[2]; [5]
  Percent survival of H. virescens larvae: 50%
  Scores of damage caused by H. virescens larvae: 4.9
[2]; [6]
  Percent survival of H. virescens larvae: 28%
  Scores of damage caused by H. virescens larvae: 3.4
[2]; [7]
  Percent survival of H. virescens larvae: 8%
  Scores of damage caused by H. virescens larvae: 2.7
[2]; [8]
  Percent survival of H. virescens larvae: 37%
  Scores of damage caused by H. virescens larvae: 4.7
[2]; [9]
  Percent survival of H. virescens larvae: 30%
  Scores of damage caused by H. virescens larvae: 3.3
[2]; [10]
  Percent survival of H. virescens larvae: 2%
  Scores of damage caused by H. virescens larvae: 1.8
[2]; [11]
  Percent survival of H. virescens larvae: 22%
  Scores of damage caused by H. virescens larvae: 3.3
[2]; [12]
  Percent survival of H. virescens larvae: 8%
  Scores of damage caused by H. virescens larvae: 2.1
[2]; [13]
  Percent survival of H. virescens larvae: 9%
  Scores of damage caused by H. virescens larvae: 2.7
[2]; [14]
  Percent survival of H. virescens larvae: 21%
  Scores of damage caused by H. virescens larvae: 3.5
[2]; [15]
  Percent survival of H. virescens larvae: 2%
  Scores of damage caused by H. virescens larvae: 1.5
[2]; [16]
  Percent survival of H. virescens larvae: 0%
  Scores of damage caused by H. virescens larvae: 1.3
[2]; [17]
  Percent survival of H. virescens larvae: 8%
  Scores of damage caused by H. virescens larvae: 1.9
[2]; [18]
  Percent survival of H. virescens larvae: 12%
  Scores of damage caused by H. virescens larvae: 2.0
[2]; [19]
  Percent survival of H. virescens larvae: 31%
  Scores of damage caused by H. virescens larvae: 4.1
[2]; [20]
  Percent survival of H. virescens larvae: 13%
  Scores of damage caused by H. virescens larvae: 2.8
[2]; [21]
  Percent survival of H. virescens larvae: 46%
  Scores of damage caused by H. virescens larvae: 5.5
[2]; [22]
  Percent survival of H. virescens larvae: 51%
  Scores of damage caused by H. virescens larvae: 5.8
[2]; [23]
  Percent survival of H. virescens larvae: 7%
  Scores of damage caused by H. virescens larvae: 1.9
[2]; [24]
  Percent survival of H. virescens larvae: 10%
  Scores of damage caused by H. virescens larvae: 2.0
[2]; [25]
  Percent survival of H. virescens larvae: 25%
  Scores of damage caused by H. virescens larvae: 2.8
[2]; [26]
  Percent survival of H. virescens larvae: 10%
  Scores of damage caused by H. virescens larvae: 2.0
[2]; [27]
  Percent survival of H. virescens larvae: 49%
  Scores of damage caused by H. virescens larvae: 4.4
[2]; [28]
  Percent survival of H. virescens larvae: 22%
  Scores of damage caused by H. virescens larvae: 3.0
[2]; [29]
  Percent survival of H. virescens larvae: 32%
  Scores of damage caused by H. virescens larvae: 3.9
[2]; [30]
  Percent survival of H. virescens larvae: 27%
  Scores of damage caused by H. virescens larvae: 3.4
[2]; [31]
  Percent survival of H. virescens larvae: 34%
  Scores of damage caused by H. virescens larvae: 4.9
[2]; [32]
  Percent survival of H. virescens larvae: 48%
  Scores of damage caused by H. virescens larvae: 6.0
[2]; [33]
  Percent survival of H. virescens larvae: 42%
  Scores of damage caused by H. virescens larvae: 4.2
[2]; [34]
  Percent survival of H. virescens larvae: 61%
  Scores of damage caused by H. virescens larvae: 4.9
[2]; [35]
  Percent survival of H. virescens larvae: 16%
  Scores of damage caused by H. virescens larvae: 3.2
[2]; [36]
  Percent survival of H. virescens larvae: 48%
  Scores of damage caused by H. virescens larvae: 6.4
[2]; [37]
  Percent survival of H. virescens larvae: 50%
  Scores of damage caused by H. virescens larvae: 4.4
[2]; [38]
  Percent survival of H. virescens larvae: 64%
  Scores of damage caused by H. virescens larvae: 4.8
[2]; [39]
  Percent survival of H. virescens larvae: 16%
  Scores of damage caused by H. virescens larvae: 4.2
[2]; [40]
  Percent survival of H. virescens larvae: 36%
  Scores of damage caused by H. virescens larvae: 6.5
[2]; [41]
  Percent survival of H. virescens larvae: 37%
  Scores of damage caused by H. virescens larvae: 3.7
[2]; [42]
  Percent survival of H. virescens larvae: 75%
  Scores of damage caused by H. virescens larvae: 5.2
[2]; [43]
  Percent survival of H. virescens larvae: 18%
  Scores of damage caused by H. virescens larvae: 3.5
[2]; [44]
  Percent survival of H. virescens larvae: 40%
  Scores of damage caused by H. virescens larvae: 5.1
[2]; [45]
  Percent survival of H. virescens larvae: 45%
  Scores of damage caused by H. virescens larvae: 4.0
[2]; [46]
  Percent survival of H. virescens larvae: 42%
  Scores of damage caused by H. virescens larvae: 3.6
Corn rootworms; Granule, 0.1 g m⁻¹
  Ratings for corn rootworm damage: 3.2
Corn rootworms; seed treatment Association Polymer, 10 g/kg
  Ratings for corn rootworm damage: 4.5
Corn rootworms; seed treatment PVAc/PVAl, 10 g/kg
  Ratings for corn rootworm damage: 4.1
Corn rootworms; seed treatment PVAc/PVAl, 30 g/kg
  Ratings for corn rootworm damage: 4.8
